From patent EP2812315B1, “PYRROLIC DERIVATIVES, PROCESSES FOR PREPARING THE SAME AND THEIR USES AS A DRUG” (Universite Joseph Fourier, priority 2012, dated 2013)
≈ marks a conversion by molar mass, not a printed value.

Columns and labels:
Type in all cases: cell-based
[1] = system: Acinetobacter baumanii ATCC 19606; test: MIC determination, microdilution method (CLSI M07-A8); details: Acinetobacter baumannii, ATCC19606; Acinetobacter baumanii ATCC 19606; 18 hours incubation; read-out: MIC
Experimental: (§1) The microdilution method recommended by the Clinical and Laboratory Standard Institute [M07-A8, Vol.29, N°2] was used. The activity of pyrrolic compounds was tested against 29 bacterial strains belonging to 17 different species and 12 different genera (Staphylococcus, Streptococcus, Enterococcus, […], Bacillus, Haetttophilus, Escherichia, Klebsiella, Enterobacter, Serratia, Pseudomonas, and Acinetobacter). Bacterial inocula were prepared in Mueller Hinton broth (MH2, bioMérieux, Marcy L'Etoile, France), supplemented with 10% sheep blood for fastidious species (i.e., Streptococcus pneumoniae and Haemophilus influenzae). They were dispensed in 96 well microtiter plates (5 x 10^5 CFU/mL of final inoculum). Pyrrolic compounds were added to the wells as to obtain two-fold serial concentrations (0.25-64 mg/L). Plates were incubated at 37°C, in 5% CO2 enriched atmosphere for fastidious species only. MICs were read after 18 hours incubation of cultures, and corresponded to the minimum pyrrolic compound concentration that allowed complete visual growth inhibition of bacteria. Drug-free cultures served as growth controls. Cultures receiving gentamicine, ciprofloxacine or cefotaxime served as positive controls.

[2] = system: Enterobacter cloacae ATCC13047; test: as above; details: Enterobacter cloacae ATCC13047; 18 hours incubation; read-out: MIC
Experimental: as §1

[3] = system: Escherichia coli ATCC 25922; test: as above; details: ATCC25922; Escherichia coli ATCC 25922; 18 hours incubation; read-out: MIC
Experimental: as §1

[4] = system: Klebsiella pneumoniae ATCC 35657; test: as above; details: ATCC35657; Klebsiella pneumoniae ATCC 35657; 18 hours incubation; read-out: MIC
Experimental: as §1

[5] = system: Pseudomonas aeruginosa CIP 5933; test: as above; details: CIP5933; Pseudomonas aeruginosa CIP 5933; 18 hours incubation; read-out: MIC
Experimental: as §1

[6] = system: Serratia marcescens CIP 103551; test: as above; details: CIP103551; Serratia marcescens CIP 103551; 18 hours incubation; read-out: MIC
Experimental: as §1

[7] = system: Staphylococcus aureus ATCC 25923; test: as above; details: ATCC25923; Staphylococcus aureus ATCC 25923; 5 x 10^5 CFU/mL; 18 hours incubation; read-out: MIC
Experimental: as §1

[8] = system: Staphylococcus aureus ATCC 29213; test: as above; details: ATCC29213; Staphylococcus aureus ATCC 29213; 5 x 10^5 CFU/mL; 18 hours incubation; read-out: MIC
Experimental: as §1

[9] = system: Staphylococcus epidermidis ATCC 12228; test: as above; details: ATCC12228; Staphylococcus epidermidis ATCC 12228; 5 x 10^5 CFU/mL; 18 hours incubation; read-out: MIC
Experimental: as §1

[10] = system: HCT116 (human colon tumor); test: In vitro cytotoxicity; details: triplicate; for inhibition at 10 µM: HCT-116, 10^-5 M in DMSO, read-out: % of cellular growth inhibition; for inhibition at 1 µM: HCT-116, 10^-6 M in DMSO, read-out: % of cellular growth inhibition (converted)
Experimental: (§2) In vitro cytotoxicity was assayed on three cell lines - KB (human mouth carcinoma), MCR5 (human lung fibroblast) and HCT116 (human colon tumor). Results are presented in table III as % of cellular growth inhibition in presence of 10^-5 M and 10^-6 M of the tested bis-pyrrolic derivatives in DMSO (triplicate).

[11] = system: KB (human mouth carcinoma); test: In vitro cytotoxicity; details: triplicate; for inhibition at 10 µM: 10^-5 M in DMSO, read-out: % of cellular growth inhibition; for inhibition at 1 µM: 10^-6 M in DMSO, read-out: % of cellular growth inhibition (converted)
Experimental: as §2

[12] = system: MRC5; test: In vitro cytotoxicity; details: MRC5 (human lung fibroblast), triplicate; for inhibition at 10 µM: 10^-5 M in DMSO, read-out: % of cellular growth inhibition; for inhibition at 1 µM: 10^-6 M in DMSO, read-out: % of cellular growth inhibition (converted)
Experimental: as §2

What does the source list for `CC(=O)c1c(C)[nH]c(C(c2ccc(F)cc2)c2[nH]c(C)c(C(C)=O)c2C)c1C` [3g]?
MIC [1]: > 32 µg/mL; MIC [2]: > 32 µg/mL; MIC [3]: > 32 µg/mL; MIC [4]: > 32 µg/mL; MIC [5]: > 32 µg/mL; MIC [6]: > 32 µg/mL; MIC [7]: 2 µg/mL (≈ 5.26 µM); MIC [8]: 1 µg/mL (≈ 2.63 µM); MIC [9]: > 128 µg/mL; inhibition at 10 µM [10]: 3 ± 6%; inhibition at 10 µM [11]: 11 ± 3%; inhibition at 10 µM [12]: 2 ± 1%

What does the source list for `CC(=O)c1c(C)[nH]c(C(c2cc3ccccc3s2)c2[nH]c(C)c(C(C)=O)c2C)c1C` [3f]?
MIC [1]: > 128 µg/mL; MIC [2]: > 128 µg/mL; MIC [3]: > 128 µg/mL; MIC [4]: > 128 µg/mL; MIC [5]: > 128 µg/mL; MIC [6]: > 128 µg/mL; MIC [7]: 2 µg/mL (≈ 4.78 µM); MIC [8]: 2 µg/mL (≈ 4.78 µM); MIC [9]: > 128 µg/mL; inhibition at 10 µM [10]: 19 ± 4%; inhibition at 10 µM [11]: 23 ± 3%; inhibition at 10 µM [12]: 0%

`CC(=O)c1c(C)[nH]c(C(c2cc3ccccc3o2)c2[nH]c(C)c(C(C)=O)c2C)c1C` [3e] was tested. Which MIC [1] did it give?
The MIC was over 128 µg/mL.

And the MIC [2]?
The MIC was over 128 µg/mL.

What about the MIC [3] of the same compound?
The MIC was over 128 µg/mL.

And the MIC [4]?
Its MIC is over 128 µg/mL.

What about the MIC [5] of the same compound?
The MIC was over 128 µg/mL.

And the MIC [6]?
Its MIC is over 128 µg/mL.

What about the MIC [7] of the same compound?
The MIC was 4 µg/mL (≈ 9.94 µM).

And the MIC [8]?
The MIC was 2 µg/mL (≈ 4.97 µM).

And the MIC [9]?
The MIC was over 128 µg/mL.

What about the inhibition at 10 µM [10] of the same compound?
The inhibition at 10 µM was 24 ± 6%.

What about the inhibition at 10 µM [11] of the same compound?
The inhibition at 10 µM was 2 ± 3%.

What about the inhibition at 10 µM [12] of the same compound?
The inhibition at 10 µM was 7 ± 1%.

`CC(=O)c1c(C)[nH]c(C(c2ccc(Cl)cc2)c2[nH]c(C)c(C(C)=O)c2C)c1C` [3c] was tested. Which MIC [1] did it give?
Its MIC is over 128 µg/mL.

And the MIC [2]?
The MIC was over 128 µg/mL.

And the MIC [3]?
The MIC was over 128 µg/mL.

And the MIC [4]?
The MIC was over 128 µg/mL.

What about the MIC [5] of the same compound?
The MIC was over 128 µg/mL.

What about the MIC [6] of the same compound?
The MIC was over 128 µg/mL.

What about the MIC [7] of the same compound?
Its MIC is 4 µg/mL (≈ 10.1 µM).

And the MIC [8]?
Its MIC is 2 µg/mL (≈ 5.04 µM).

And the MIC [9]?
The MIC was over 128 µg/mL.

What about the inhibition at 10 µM [10] of the same compound?
The inhibition at 10 µM was 17 ± 11%.

And the inhibition at 10 µM [11]?
The inhibition at 10 µM was 27 ± 7%.

And the inhibition at 10 µM [12]?
The inhibition at 10 µM was 9 ± 1%.

With `CC(=O)c1c(C)[nH]c(C(c2[nH]c(C)c(C(C)=O)c2C)c2csc3ccccc23)c1C` [3i] as the compound, how does the MIC [1] read?
The MIC was over 128 µg/mL.

What about the MIC [2] of the same compound?
Its MIC is over 128 µg/mL.

What about the MIC [3] of the same compound?
The MIC was over 128 µg/mL.

And the MIC [4]?
The MIC was over 128 µg/mL.

What about the MIC [5] of the same compound?
The MIC was over 128 µg/mL.

What about the MIC [6] of the same compound?
The MIC was over 128 µg/mL.

And the MIC [7]?
Its MIC is 1 µg/mL (≈ 2.39 µM).

What about the MIC [8] of the same compound?
The MIC was 0.5 µg/mL (≈ 1.19 µM).

What about the MIC [9] of the same compound?
The MIC was over 128 µg/mL.

And the inhibition at 10 µM [10]?
The inhibition at 10 µM was 50 ± 1%.

And the inhibition at 1 µM [10]?
The inhibition at 1 µM was 10%.

What about the inhibition at 10 µM [11] of the same compound?
The inhibition at 10 µM was 95 ± 1%.

And the inhibition at 1 µM [11]?
The inhibition at 1 µM was 0%.

And the inhibition at 10 µM [12]?
The inhibition at 10 µM was 84 ± 1%.

And the inhibition at 1 µM [12]?
Its inhibition at 1 µM is 0%.

What does the source list for `CC(=O)c1c(C)[nH]c(C(c2[nH]c(C)c(C(C)=O)c2C)c2cccc3ccccc23)c1C` [3h]?
MIC [1]: > 128 µg/mL; MIC [2]: > 128 µg/mL; MIC [3]: > 128 µg/mL; MIC [4]: > 128 µg/mL; MIC [5]: > 128 µg/mL; MIC [6]: > 128 µg/mL; MIC [7]: 1 µg/mL (≈ 2.42 µM); MIC [8]: 1 µg/mL (≈ 2.42 µM); MIC [9]: > 128 µg/mL; inhibition at 10 µM [10]: 53 ± 2%; inhibition at 1 µM [10]: 5%; inhibition at 10 µM [11]: 54 ± 4%; inhibition at 1 µM [11]: 0%; inhibition at 10 µM [12]: 25 ± 4%; inhibition at 1 µM [12]: 0%

For `CC(=O)c1c(C)[nH]c(C(c2[nH]c(C)c(C(C)=O)c2C)c2csc3ccc(Br)cc23)c1C` [3n], which inhibition at 10 µM [10] is on record?
Its inhibition at 10 µM is 83 ± 1%.

What about the inhibition at 1 µM [10] of the same compound?
Its inhibition at 1 µM is 47%.

What about the inhibition at 10 µM [11] of the same compound?
The inhibition at 10 µM was 100 ± 1%.

And the inhibition at 1 µM [11]?
Its inhibition at 1 µM is 81%.

And the inhibition at 10 µM [12]?
Its inhibition at 10 µM is 96 ± 1%.

What about the inhibition at 1 µM [12] of the same compound?
Its inhibition at 1 µM is 67%.

For `COC(=O)c1cccc(C(c2[nH]c(C)c(C(C)=O)c2C)c2[nH]c(C)c(C(C)=O)c2C)c1` [3j, Methyl-3-[bis(4-acetyl-3,5-dimethyl-1H-pyrrol-2-yl)methyl]benzoate], which MIC [1] is on record?
Its MIC is over 32 µg/mL.

And the MIC [2]?
The MIC was over 32 µg/mL.

What about the MIC [3] of the same compound?
Its MIC is over 32 µg/mL.

And the MIC [4]?
Its MIC is over 32 µg/mL.

And the MIC [5]?
The MIC was over 32 µg/mL.

What about the MIC [6] of the same compound?
Its MIC is over 32 µg/mL.

And the MIC [7]?
The MIC was 4 µg/mL (≈ 9.51 µM).

And the MIC [8]?
Its MIC is 2 µg/mL (≈ 4.76 µM).

What about the MIC [9] of the same compound?
The MIC was over 128 µg/mL.

What about the inhibition at 10 µM [10] of the same compound?
Its inhibition at 10 µM is 1 ± 3%.

And the inhibition at 10 µM [11]?
The inhibition at 10 µM was 11 ± 3%.

And the inhibition at 10 µM [12]?
Its inhibition at 10 µM is 5 ± 1%.
